Legend:
[1] = test system: pseudo-escaping reaction to tail pressure; assay: Analgetic activity against mechanical stimulation of pressure; assay type: in vivo, mouse (ICR female); details: oral, 1000 mg/kg
[2] = test system: acetic acid writhing; assay: Analgetic activity against chemical stimulation of acetic acid (writhing); assay type: in vivo, mouse (ICR female); details: Mus musculus, po, 30 min before 0.6% acetic acid, read-out: I.R. of writhing
From the text: Rate of inhibition (I.R.) (%)=(1-T/C)×100
T represents the average number of writhing of the group of mice administered with the present compound and injected with acetic acid, and C represents the average number of writhing of the group of mice only injected with acetic acid (control).

[3] = test system: beta-lipoprotein; assay: Anti-hyperlipemia activity, beta-lipoprotein in blood; assay type: in vivo, rabbit (Japanese white male); details: oral, 300 mg/kg once
Method in brief: (§1)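 Male Japanese white rabbits fed 1% cholesterol diet for 3 months received compound once orally at 300 mg/kg in water. Ear-vein blood: cholesterol by enzymatic method, beta-lipoprotein by colorimetry; values are change from predose at 3 or 6 h.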

[4] = test system: total cholesterol; assay: Anti-hyperlipemia activity, total cholesterol in blood; assay type: in vivo, rabbit (Japanese white male); details: oral, 300 mg/kg once; for Reduction of cholesterol level after 3 hrs.: negative = raising
Method in brief: as §1

[5] = test system: blood pressure; assay: Anti-hypertension activity (reduction of blood pressure); assay type: in vivo, rat (spontaneous hypertension); details: oral, 300 mg/kg
Method in brief: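 Spontaneously hypertensive rats dosed orally at 300 mg/kg in distilled water. Blood pressure measured at 3 and 6 h. Activity taken as change from the value just before dosing.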

[6] = test system: carrageenin edema; assay: Anti-Carrageenin edema activity; assay type: in vivo, rat; details: Rattus norvegicus, po, 1000 mg/kg once, read-out: I.R. against carrageenin edema
Method in brief: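 Rats (10 per group) given compound orally once at 1000 mg/kg in distilled water, then 0.1 ml 1% carrageenin injected into right hind foot pad. Foot pad thickness measured at intervals; inhibition rate (%) = (1−T/C)×100 versus carrageenin-only animals.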

[7] = test system: Sarcoma-180; assay: Anti-tumour activity against Sarcoma-180; assay type: in vivo, mouse (ICR-JCL); details: Mus musculus, Sarcoma-180, po, 600 h, 10 times every other day, tumour weight on 25th day, read-out: Antitumour activity, inhibiting rate (I.R.)
Method in brief: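 ICR-JCL mice were given 1×10^6 Sarcoma-180 cells axillary; from 24 hours, compounds in saline were dosed orally at 500 mg/kg/time, 10 times every other day. Tumour nodes were weighed on day 25; inhibition rate = (1-T/C)×100(%) versus untreated tumour-bearing mice.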

[8] = test system: pyrexia (Saccharomyces cerevisiae); assay: Anti-pyrexia activity (yeast-induced); assay type: in vivo; details: Rattus norvegicus, oral, read-out: Rate of inhibiting pyrexia (I.R.)
Method in brief: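 Rats (n=6/group) received subcutaneous 20% Saccharomyces cerevisiae suspension, fasted 10 h, then dosed orally with 1000 mg/kg compound in distilled water. Rectal temperature was tracked at set intervals and the lowest value taken; inhibition rate computed against non-yeast and yeast-only control temperatures.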

[9] = test system: cotton pellet granuloma; assay: Anti-granuloma activity (cotton pellet); assay type: in vivo, rat; details: Rattus norvegicus, po, 192 h, 7 days, read-out: I.R. against cotton pellet edema
Method in brief: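 Rats (6/group) implanted dorsally with two 30±1 mg cotton pellets; compounds given orally in distilled water at 1000 mg/kg/day once daily for 7 days. Granuloma excised on day 8 and dry weight measured; value is % inhibition of granuloma proliferation.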

[10] = test system: level of blood sugar; assay: Anti-hyperglycemia activity (reduction of blood sugar level); assay type: in vivo, rat (Wistar, streptozotocin); details: oral, 300 mg/kg
Method in brief: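 Streptozotocin-diabetic Wistar rats (60 mg/kg i.p., relapsed hyperglycemia after insulin) given compounds orally at 300 mg/kg in distilled water. Blood sugar measured in samples taken 3 and 6 h post-dose.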

[11] = in vivo; details: mouse, in vivo, po, mice, 7 days observation, read-out: LD50, acute oral toxicity
[12] = test system: exudation; assay: Anti-exudation activity (air pouch, croton oil); assay type: in vivo, rat; details: Rattus norvegicus, po, 144 h, 5 days, read-out: I.R. against exudation
Method in brief: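 Rats, 6 per group, given subcutaneous dorsal air pouch injected with 0.5 ml sesame oil containing 1% croton oil. Compounds dosed orally in distilled water at 1000 mg/kg/day for five days; pouch exudate volume measured on day 6 and expressed as percent inhibition of exudation.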

Structure (SMILES)	Pseudo-escapting reaction pressure [1] [mmHg]	Pseudo-escapting reaction time [1] [s]	inhibition in vivo at 1000 mg/kg [2] [%]	Reduction of beta-lipoprotein level after 3 hrs. [3] [mg/dL]	Reduction of beta-lipoprotein level after 6 hrs. [3] [mg/dL]	Reduction of cholesterol level after 3 hrs. [4] [mg/dL]	Reduction of cholesterol level after 6 hrs. [4] [mg/dL]	Reduced level of blood pressure after 3 hrs. [5] [mm Hg]	Reduced level of blood pressure after 6 hrs. [5] [mm Hg]	inhibition in vivo at 1000 mg/kg [6] [%]	inhibition in vivo at 500 mg/kg [7] [%]	inhibition in vivo at 1000 mg/kg [8] [%]	inhibition in vivo at 1000 mg/kg/day [9] [%]	Reduced level of blood sugar after 3 hrs. [10] [mg/dL]	Reduced level of blood sugar after 6 hrs. [10] [mg/dL]	LD50 at 168 h [11] [mg/kg]	inhibition in vivo at 1000 mg/kg/day [12] [%]
O=C(OCc1ccccc1)c1ccc(NC2O[C@H](CO)[C@@H](O)[C@H](O)[C@H]2O)cc1 (stereo partly drawn) [Compound 14, benzyl p-aminobenzoate-N-D-glucoside]	92	44	39	143	146	3	38	24	24	5.1	42	56	23.3	65	93	11700	6.9
O=C(OCc1ccccc1)c1ccc(NC2(CO)OC[C@@H](O)[C@@H](O)[C@@H]2O)cc1 (stereo partly drawn) [Compound 15, benzyl p-aminobenzoate-N-D-fructoside]	78	37	19	150	154	-1	45	18	20	30.8	43	26	9	72	85	11000	7.5
O=C(OC1CCCCC1)c1ccccc1NC1C[C@H](O)[C@H](O)CO1 (stereo partly drawn) [Compound 16, cyclohexyl o-aminobenzoate-N-D-deoxyriboside]	87	39	26	104	110	0	33	20	20	18.6	37	48	6.5	125	140	8800	5.7
O=C(OC1CCCCC1)c1cccc(NC2O[C@H](CO)[C@@H](O)[C@H](O)[C@@H]2O)c1 (stereo partly drawn) [Compound 17, cyclohexyl m-aminobenzoate-N-D-mannoside]	92	42	47	124	136	-2	40	23	28	4.3	49	30	19.7	140	145	> 15000	14.6
O=C(OC1CCCCC1)c1ccc(NC2OC[C@@H](O)[C@H](O)[C@H]2O)cc1 (stereo partly drawn) [Compound 18, cyclohexyl p-aminobenzoate-N-D-xyloside]	94	39	33	148	154	2	62	22	25	19.7	62	62	12.2	121	165	> 15000	25
O=C(OC1CCCCC1)c1ccc(NC2O[C@H](CO)[C@@H](O[C@@H]3O[C@H](CO)[C@@H](O)[C@H](O)[C@H]3O)[C@H](O)[C@H]2O)cc1 (stereo partly shown) [Compound 19, cyclohexyl p-aminobenzoate-N-cellobioside]	82	37	24	135	148	3	41	20	21	5.5	51	37	5.5	101	113	14600	24.6
O=C(OC1CCCCC1)c1ccc(NC2O[C@H](CO)[C@@H](O[C@H]3O[C@H](CO)[C@@H](O[C@H]4O[C@H](CO)[C@@H](O)[C@H](O)[C@H]4O)[C@H](O)[C@H]3O)[C@H](O)[C@H]2O)cc1 (stereo partly shown) [Compound 20, cyclohexyl p-aminobenzoate-N-maltotrioside]	75	35	17	125	128	-2	50	22	24	8.6	37	23	21.7	113	120	12500	6.2
O=C(OCC1CCCCC1)c1ccccc1NC1O[C@H](CO)[C@@H](O[C@@H]2O[C@H](CO)[C@H](O)[C@H](O)[C@H]2O)[C@H](O)[C@H]1O (stereo partly shown) [Compound 21, hexahydrobenzyl o-aminobenzoate-N-lactoside]	84	40	28	96	109	4	43	16	17	19.4	44	28	7.2	95	102	> 15000	20.7
